Source: patent US5473051A, “Inhibition of Mac-1 receptor binding to fibrinogen using D30 homologs” (The Scripps Research Institute, priority 1991, dated 1995)
Values joined by “and” are separate entries in the source; they are usually repeats but may differ in a detail not shown here. Equal entries are not always repeated. “Also recorded” adds a separate entry of the source.

What was measured:
neutrophils or monocytes = assay: Cell attachment to polypeptide-coated wells; format: cell-based, human
Protocol: To determine the Mac-1 receptor-binding site on the gamma chain of D30, the synthetic polypeptides prepared above were separately evaluated in cell attachment assays. For these assays, wells of 96-well microtiter plates (Linbro/Titertek; Flow Laboratories, VA) were coated with 60 μl of a 1 mg/ml solution of individual synthetic polypeptides prepared above. The wells containing the dissolved polypeptides were maintained for 16 hours at 4° C. The wells were then washed twice with PBS and blocked for 30 minutes with 0.1% BSA in PBS. After a final wash, 100 μl of DMEM containing 1% fetal bovine serum and 2×10^5 cells/ml of either neutrophils or monocytes prepared respectively in Example 2B and Example 8D were admixed into each well. The cells were maintained for 30 minutes at room temperature to allow the cells to attach to the polypeptide-coated wells. Non-adherant cells were removed from the wells by washing twice with PBS. […]
Adherent cells were quantitated by staining with 0.5% crystal violet. […] The optical density (O.D.) at 550 nm was determined with an ELISA reader (Biotek Instruments). Non-specific adherence was determined by plating cells on BSA-coated wells for the appropriate period of time. Specific adhesion to a given polypeptide substrate was calculated by subtracting the O.D. obtained with cells plated on BSA from that observed for cells plated on individual polypeptides. […]

THP-1 cells = assay: Inhibition of THP-1 cell attachment to fibrinogen-coated wells; format: cell-based, human
Protocol: Cell attachment assays were performed to determine if the Plb polypeptide (SEQ ID NO 13) which was derived from the gamma chain of D30 from residue 195 to residue 201 would inhibit the binding of THP-1 cells to fibrinogen-coated plates as effectively as the larger polypeptide, P1 (SEQ ID NO 12). The assays were performed as described in Example 8C with the following modifications: the microtiter wells were coated with 10 μg/ml of fibrinogen overnight at room temperature to form fibrinogen-coated wells; the unoccupied sites on the wells were then blocked to prevent non-specific background with 3% gelatin for 30 minutes at room temperature; 2×10^5 THP-1 cells prepared as described in Example 8D2) were separately admixed with the polypeptides P1, […] and L10, the latter of which served as a control, ranging in concentration from 0.03 mg/ml to 1 mg/ml to form THP-1 cell-polypeptide admixtures; the resultant admixtures were maintained for 30 minutes at room temperature after which time the cells were admixed to the fibrinogen-coated plates as described in Example 8C.
The results of the inhibition of cell attachment assay are shown above in Table 2. The absorbance of crystal violet stain, indicating the relative number of cells that attached to the fibrinogen-coated wells, was measured at 600 nm. The absorbance values are tabulated in columns according to the concentration of each polypeptide separately tested in the assay. […] These six amino acid residues comprise the Mac-1 receptor binding site of fibrinogen.

Mac-1 receptor [1] = target: T1, Mac-1 receptor (Homo sapiens, UniProt P05107+P11215); assay: Inhibition of 125I-P1 binding to THP-1 cells; set-up: Separate aliquots of the resuspended Mac-1 receptor-bearing neutrophils were stimulated with 10 μM of the chemotactic peptide; endogenous in cells; conditions: one hour
T1 sequence (P05107 23-769, other chains not shown): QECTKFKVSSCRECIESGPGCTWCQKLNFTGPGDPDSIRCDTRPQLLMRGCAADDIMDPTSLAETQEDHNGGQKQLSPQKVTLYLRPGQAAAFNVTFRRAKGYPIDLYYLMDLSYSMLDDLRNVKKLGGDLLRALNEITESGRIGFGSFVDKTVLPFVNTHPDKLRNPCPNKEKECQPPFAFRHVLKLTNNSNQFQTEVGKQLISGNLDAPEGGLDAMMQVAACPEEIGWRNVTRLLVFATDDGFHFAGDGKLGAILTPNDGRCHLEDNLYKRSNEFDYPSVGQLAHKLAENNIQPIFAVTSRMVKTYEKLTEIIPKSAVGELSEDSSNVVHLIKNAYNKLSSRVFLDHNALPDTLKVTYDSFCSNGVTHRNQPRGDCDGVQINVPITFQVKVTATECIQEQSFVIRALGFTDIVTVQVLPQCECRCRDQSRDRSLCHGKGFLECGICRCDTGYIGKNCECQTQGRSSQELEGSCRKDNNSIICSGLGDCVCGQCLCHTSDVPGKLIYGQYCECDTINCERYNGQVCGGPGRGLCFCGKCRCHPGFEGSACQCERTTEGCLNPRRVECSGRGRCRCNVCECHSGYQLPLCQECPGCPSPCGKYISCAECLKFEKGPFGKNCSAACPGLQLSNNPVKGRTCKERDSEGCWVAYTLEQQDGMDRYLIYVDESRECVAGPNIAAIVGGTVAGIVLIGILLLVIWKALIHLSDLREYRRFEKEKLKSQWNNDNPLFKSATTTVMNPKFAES
Protocol: Similar binding assays and inhibition thereof were performed using the monocytic cell line THP-1 (ATCC TIB 202, Bethesda, Md.). THP-1 cells were maintained in RPMI 1640 supplemented with 10% fetal bovine serum (HyClone, Logan, UT), 20 mM Hepes, 100 μg/ml gentamycin, 2 mM L-glutamine and 10 μM beta-mercaptoethanol. The competitive inhibitors evaluated in the assay to compete for the binding of the labeled P1 polypeptide to THP-1 cells included the following:D30 prepared as described in Example 1; the irrelevant polypeptide L10 described above; the monoclonal antibody IB4 which recognizes the beta subunit of the Mac-1 receptor (Wright et al., Proc. Natl. Acad. Sci., USA, 80:5699-5703 (1983); the monoclonal antibody M1/70 which recognizes the alpha subunit of the Mac-1 receptor (Ho et al., J. Biol. Chem., 258:2766-2769 (1983); and a monoclonal antibody against tissue factor as described by Morrisey et al., Thromb. Res., 52:247-261 (1988 ).
The assays in which D30 or polypeptides derived therefrom were performed as described above and in Example 6. The assays in which antibodies were used as competitive inhibitors were performed as described in Example 2C using 50 μg/ml of each antibody. […] The amount of binding of radiolabelled P1 polypeptide to THP-1 cells was measured after a […] maintenance period in the absence or presence of unlabelled competitors. […]

Mac-1 receptor [2] = target: T1, Mac-1 receptor; assay: Binding of 125I-P1 to monocytes and competition; set-up: Separate aliquots of the resuspended Mac-1 receptor-bearing neutrophils were stimulated with 10 μM of the chemotactic peptide; endogenous in cells; host or cells: neutrophils from blood of normal volunteers, stimulated with fMLP
Protocol: Anticoagulated blood was prepared as described in Example 2B. After resuspending the pelleted erythrocytes, mononuclear and polynuclear cells with a volume equal to the starting blood volume with chilled 0.14M PBS, 35 ml of the cell suspension were layered onto 15 ml of Ficoll-Hypaque (Pharmacia) in a 50 ml polypropylene tube and centrifuged at 400×g for 40 minutes at room temperature. The cells at the interface were carefully removed with sterile plastic pipettes and were then washed two times with excess 5 mM PBS-EDTA (ethylene diamine tetracetic acid). The washed cells were then centrifuged first at 400×g for 20 minutes at 4° C., the pellet was resuspended as above, then the suspension was centrifuged again at 120×g for 12 minutes at 4° C. The cell pellet was again resuspended to form a PMBC cell suspension. […]
Human monocytes were purified from the platelet-free PMBC cell suspension as described by Fischer et al., Academic Press, Inc., New York, pp: 43-47 (1981). […] The purity of the monocyte preparation was greater than 90% as assessed by alpha-naphthyl acetate esterase staining and the viability was greater than 95% as judged by trypan blue exclusion. […]
The specific cell-associated binding of radiolabelled P1 to monocytes was measured over 60 minutes at 10 minute intervals and was calculated as described in Example 6. […]

Mac-1 receptor [3] = target: T1, Mac-1 receptor; assay: Inhibition of 125I-fibrinogen binding to THP-1 cells by polypeptide; set-up: Separate aliquots of the resuspended Mac-1 receptor-bearing neutrophils were stimulated with 10 μM of the chemotactic peptide; endogenous in cells; host or cells: neutrophils from blood of normal volunteers, stimulated with fMLP
Protocol: The specificity of the P1 polypeptide for the Mac-1 receptor on THP-1 cells was confirmed in assays where the binding of purified intact fibrinogen to THP-1 cells was inhibited by P1 but not by the irrelevant polypeptide, L10. The assays were performed as described in Example 6 with the exception that THP-1 cells prepared as described in Example 8D were used instead of neutrophils. The amount of polypeptide used in the assay ranged in concentration from 7 μg/ml up to 60 μg/ml.
The amount of radiolabelled fibrinogen bound to THP-1 cells was expressed as molecules/cell ×1000 and plotted on the ordinate against increasing polypeptide concentrations as shown in FIG. 7.

Mac-1 receptor [4] = target: T1, Mac-1 receptor; assay: Competition of 125I-fibrinogen binding to stimulated neutrophils; set-up: Separate aliquots of the resuspended Mac-1 receptor-bearing neutrophils were stimulated with 10 μM of the chemotactic peptide; endogenous in cells; host or cells: neutrophils from blood of normal volunteers, stimulated with fMLP
Protocol: Fibrinogen was purified as described in Example 1 and radiolabelled as described for D30 in Example 2A. Mac-1 receptor-bearing neutrophils were prepared as described in 2B. Separate aliquots of stimulated neutrophils at a concentration of 1.5×10^7 cells/ml were simultaneously incubated with a predetermined subsaturating dose of ^125 I-labelled fibrinogen (50 μg/ml) and increasing concentrations of various competing proteins for 20 minutes at room temperature. The reaction in the admixture was terminated by centrifugation through silicon oils as described in Example 2. The amount of labelled Mac-1 receptor:fibrinogen complex was determined by gamma detection. Non-specific binding was calculated as described in Example 2 and subtracted from the total to calculate specific binding.
Unlabelled fibrinogen and fibrinogen fragments X, D:E and D obtained as described in Example 1A and B were evaluated for their ability to compete for labelled fibrinogen binding to stimulated neutrophils.
Fibrinogen fragments E and D30 obtained as described in Example 1B were evaluated for their ability to compete for labelled fibrinogen binding to stimulated neutrophils.

Substance	promotion of cell attachment (in words) (neutrophils or monocytes)	inhibition of THP-1 cell attachment to fibrinogen (in words) (THP-1 cells; 0.03 to 1 mg/ml polypeptide)	polypeptide concentration giving maximal inhibition of THP-1 binding to fibrinogen (THP-1 cells; 0.03 to 1 mg/ml tested)	Absorbance at 600 nm (THP-1 cells attached to fibrinogen) (THP-1 cells; polypeptide 0.03 mg/ml)	Absorbance at 600 nm (THP-1 cells attached to fibrinogen) (THP-1 cells; polypeptide 0.125 mg/ml)	Absorbance at 600 nm (THP-1 cells attached to fibrinogen) (THP-1 cells; polypeptide 0.5 mg/ml)	Absorbance at 600 nm (THP-1 cells attached to fibrinogen) (THP-1 cells; polypeptide 0.60 mg/ml)	Absorbance at 600 nm (THP-1 cells attached to fibrinogen) (THP-1 cells; polypeptide 1.0 mg/ml)	total specific binding of P1 to THP-1 cells in the absence of competitors (Mac-1 receptor [1])	competition of 125I-P1 binding to monocytes (Mac-1 receptor [2]; 1 mg/ml cold polypeptide)	binding of radiolabelled P1 to monocytes (Mac-1 receptor [2]; one hour assay, 20,000 cpm 125I-P1)	inhibition of fibrinogen binding to THP-1 cells (in words) (Mac-1 receptor [3]; 7 to 60 μg/ml polypeptide)	polypeptide concentration giving maximal inhibition of fibrinogen binding to THP-1 cells (Mac-1 receptor [3]; 7 to 60 μg/ml tested) [µg/mL]	IC50 for inhibition of 125I-fibrinogen binding to stimulated neutrophils (Mac-1 receptor [4]; 50 μg/ml 125I-fibrinogen, 20 minutes at room temperature) [µg/mL]	competition of 125I-fibrinogen binding to stimulated neutrophils (in words) (Mac-1 receptor [4]; increasing concentrations of competitor)	125I-fibrinogen specifically bound in the absence of competitors (Mac-1 receptor [4]; stimulated neutrophils, 50 μg/ml 125I-fibrinogen)
KYGWTVFQKRLDGSV [P1, N-terminal lysine-tyrosine-glycine added]	promoting cells attachment	effective at inhibiting cell attachment at all concentrations	0,125 mg/ml	1.02	0.42	0.36	1.12	0.48	approximately 16,000 cpm	competitively inhibited; also recorded: competed	binds to monocytes in a non-saturable curve	inhibited	20	–	–	–
fibrinogen	–	–	–	–	–	–	–	–	–	–	–	–	–	25 to 50	compete	80,200±8,000 molecules/cell and 99,600±4,500 molecules/cell
